Laboratory results published in patent US20210128547A1, “AGGRESSIVE LIPID LOWERING THERAPY IN CORONARY ARTERY DISEASE” (priority 2018, published 2021).

How the values were obtained:
[1] = 4 mg of pitavastatin; cited from earlier work
patients with stable CAD = test: Randomized open-label blinded-endpoint phase 4 trial, pitavastatin 4 mg/day vs 1 mg/day (Example 1); type: in vivo, human (Japanese patients)
Procedure: This study was a prospective, multicenter, randomized, open-label, blinded-endpoint, physician-initiated phase 4 trial designed to investigate whether high-dose statin therapy could reduce CV events in patients with stable CAD as compared with low-dose statin therapy. We hypothesized that aggressive lipid lowering treatment with pitavastatin 4 mg/day would reduce the incidence of the composite endpoint comprised of CV death, non-fatal myocardial infarction (MI), non-fatal ischemic stroke, and unstable angina requiring emergency hospitalization. The control group received pitavastatin 1 mg/day.
Men and women aged 20 to 80 years with clinically evident stable CAD and elevated LDL-C were eligible for this study. CAD was defined as 1) previous ACS, such as acute myocardial infarction or unstable angina; 2) a previous coronary revascularization procedure (PCI or coronary artery bypass grafting (“CABG”)); or 3) atherosclerotic CAD detected by coronary artery angiography with at least 75% stenosis in major epicardial coronary arteries (American Heart Association classification). (30) Patients with elevated LDL-C at entry were defined as (1) patients not receiving chronic lipid-lowering therapy with LDL-C≥140 mg/dL, (2) patients with LDL-C≥100 mg/dL and considered by the attending physician to need lipid-lowering therapy, or (3) patients being treated with lipid-lowering therapy.
Exclusion criteria included (1) any planned coronary revascularization procedure, (2) active malignancy, (3) contraindication for pitavastatin (hypersensitivity to pitavastatin, severe liver disease or hepatic dysfunction, concurrent cyclosporine use, or suspected or confirmed pregnancy or current breastfeeding), (4) severe congestive heart failure (ejection fraction <30% or NYHA class ≥3), (5) current hemodialysis, (6) familial hypercholesterolemia, (7) current participation in another clinical trial, (8) current use of any prohibited drug (lipid-lowering drug other than pitavastatin) that could not be discontinued during the study, and (9) any other finding that would make the patient unsuitable for this study in the opinion of the investigators.
Participants were recruited at 733 hospitals in Japan. During screening visits, informed consent and baseline medical history were obtained, and a clinical examination and laboratory testing were performed. Blood samples were collected to determine fasting lipid levels and the patient's standard clinical profile. After discontinuation of all previous lipid-lowering therapies, all eligible patients started receiving treatment with pitavastatin 1 mg/day on an open-label basis for at least 1 month (run-in period). At the end of the run-in period (week 0), those patients with LDL-C levels below 120 mg/dL, measured by a central laboratory using Friedwald's formula, were eligible for randomization. Patients with prior ACS or coronary revascularization could be randomized beyond 3 months after the index event. Randomization was not allowed for patients with poor adherence (less than 50%) for the study drug during the run-in period or for patients with the primary endpoint events during the run-in period.
Patients were randomized in a 1:1 ratio to either pitavastatin 4 mg or pitavastatin 1 mg once daily. Randomized treatment assignment was stratified by 5 factors: 1) institution, 2) prior statin use, 3) age (<65 or ≤65), 4) diabetes, and 5) sex. Patients were to be followed for 3 years, and study visits were scheduled at 6 months for the first visit and every year thereafter. At each visit, information on vital signs, clinical endpoints, adverse events, and concurrent medication was collected. In addition, physical examinations and electrocardiograms were performed and blood specimens were collected at 6 months and every 12 months thereafter for lipid and other laboratory tests. […]

## O=C(O)C[C@H](O)C[C@H](O)/C=C/c1c(C2CC2)nc2ccccc2c1-c1ccc(F)cc1 [pitavastatin]
[1]
  reduction of LDL-C from baseline: 42.9%
Patients with stable CAD; 1 mg and 4 mg pitavastatin groups, FIG. 8
  incidence rates of individual CV events: death from any cause, myocardial infarction, and coronary revascularization: positive
Patients with stable CAD; patients converted from 1 mg dose to 4 mg dose of pitavastatin, FIG. 2
  LDL-C: statistically significant reduction
Patients with stable CAD; patients converted from 1 mg dose to 4 mg dose of pitavastatin, FIG. 3
  HDL-C: numerically superior increase
Patients with stable CAD; patients converted from 1 mg dose to 4 mg dose of pitavastatin, FIG. 4
  TG: statistically significant reduction
Patients with stable CAD; patients converted from 1 mg dose to 4 mg dose of pitavastatin, FIG. 5
  hs-CGP: statistically significant reduction
Patients with stable CAD; patients converted from 1 mg dose to 4 mg dose of pitavastatin, FIG. 6
  primary clinical endpoint (composite of CV death, MI, ischemic stroke and UA): statistically significant reduction
Patients with stable CAD; patients converted from 1 mg dose to 4 mg dose of pitavastatin, FIG. 7
  secondary clinical endpoint (primary endpoint+coronary revascularization): statistically significant reduction
Patients with stable CAD; subgroup analysis, 1 mg vs 4 mg pitavastatin, FIG. 9
  effect of LDL-C status (≥95 mg/dL or <95 mg/dL) on incidence rates for the primary endpoint: did not affect the results
